According to patent US10835507B2, “Treatment of muscular disorders with combinations of RXR agonists and thyroid hormones” (Io Therapeutics, Inc., priority 2016, dated 2020):
“Also recorded” adds a separate entry of the source.

Columns and labels:
[1] = system: mouse oligodendrocyte progenitor cells (OPCs); experiment: Mouse oligodendrocyte progenitor cell differentiation, 5-day treatment, Example 5; assay type: cell-based; details: 96-well plates, plp-EGFP mouse OPCs
Method: OPCs were derived from plp-EGFP expressing mice.
Therapeutic agents were tested in 96-well plates (6 wells per concentration). […] All media contained 0.1% DMSO. At the end of the 5-day treatment, cells were imaged on Cellomics in two channels and algorithms were used to count nuclei and EGFP+ oligodendrocytes.

[2] = target: T1, RXRα (Homo sapiens, UniProt P19793); details: RXR receptors vs RAR receptors
T1 sequence (P19793 1-462): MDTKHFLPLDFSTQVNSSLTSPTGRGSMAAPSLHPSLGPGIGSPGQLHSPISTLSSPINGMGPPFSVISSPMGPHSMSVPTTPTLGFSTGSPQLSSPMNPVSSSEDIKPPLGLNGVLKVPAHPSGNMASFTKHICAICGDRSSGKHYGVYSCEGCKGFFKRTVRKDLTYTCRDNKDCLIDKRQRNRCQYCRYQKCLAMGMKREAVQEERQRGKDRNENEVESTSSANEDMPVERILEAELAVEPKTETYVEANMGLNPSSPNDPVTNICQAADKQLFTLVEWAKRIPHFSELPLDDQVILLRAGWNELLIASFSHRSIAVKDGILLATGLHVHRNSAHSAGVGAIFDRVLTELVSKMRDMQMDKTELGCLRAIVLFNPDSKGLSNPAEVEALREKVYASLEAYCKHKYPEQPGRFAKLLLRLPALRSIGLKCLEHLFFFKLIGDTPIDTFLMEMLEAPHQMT
Method: To determine whether a RXR agonist can mediate its effects via RXRα receptor homodimers, RXRβ receptor homodimers, RXRγ receptor homodimers, or any combination thereof, or the corresponding RAR/RXR heterodimers, receptor-mediated transactivation assays were performed. For transactivation assays assessing RXR homodimer signaling, CV-1 cells were transfected with 1) an expression construct including a full length RXRα, RXRβ, or RXRγ; and 2) a rCRBPII/RXRE-tk-Luc reporter construct that included RXR homodimer-specific RXRE/DR1 responsive element linked to a luciferase gene. For transactivation assays assessing RAR/RXR heterodimer signaling, CV-1 cells were transfected with 1) an expression construct comprising a fusion protein including an estrogen receptor (ER) DNA binding domain linked to the ligand binding domain of RARα, RARβ, or RARγ and 2) a ERE-tk-Luc reporter construct that included an estrogen receptor responsive element linked to a luciferase gene. […] Data are mean values±SE from five independent experiments.

[3] = system: oligodendrocyte precursor cells (OPCs); experiment: Oligodendrocyte precursor cell differentiation (EGFP expression), Example 4; assay type: cell-based, mouse
Description: OPCs were generated from a neurosphere culture of E14.5 PLP-EGFP (on C57BL/6J background) mouse brains. […] The EGFP expressing cells were quantified with Cellomics Neuronal Profiling Algorithm.
The EGFP expressing cells in controls and all compounds were quantified with Cellomics Neuronal Profiling Algorithm.

[4] = system: mouse model of non-immune mediated demyelination; experiment: 6-week cuprizone plus rapamycin demyelination model, corpus callosum histology, Example 7; assay type: in vivo, C57BL/6J mice; details: IRX4204 10 mg/kg PO, T4 20 ng/g SQ, daily for 6 weeks during CR
Description: (§1) Animals (8 week-old male C57BL/6J mice) were subjected to cuprizone diet plus rapamycin injections (CR) for 6 weeks to induce demyelination. […] All animals were sacrificed after 6 weeks of CR to evaluate axonal integrity and microglial/macrophage activity in the white matter (corpus callosum, CC).
The floating brain sections were immunostained with SMI-32 to visualize and quantify axonal ovoids in the CC.
The floating brain sections were immunostained with lba-1 to visualize and quantify microglia/macrophages in CC.

[5] = system: Pluripotent P19 cells; experiment: Myogenic differentiation of pluripotent P19 cells; assay type: cell-based; details: approximately 1 nM to about 1 μM, 1% DMSO; present-tense example
Method: Cells fixed to cover slips are then incubated with primary antibodies for skeletal muscle markers and then labeled with secondary antibodies. Microscopy analysis is performed and the number of skeletal myocytes quantified.

[6] = system: embryonic stem cells (ES); experiment: Myogenic conversion of embryonic stem cells (embryoid bodies); assay type: cell-based; details: embryoid bodies without DMSO, approximately 1 nM to about 1 μM; present-tense example
Description: To test the potency of RXRs on myogenic conversion of embryonic stem cells (ES), embryoid bodies are formed without DMSO. […] Myoblasts are examined through microscopy and the number of myocytes counted.

[7] = system: murine skeletal muscle myoblasts and primary myoblasts; experiment: Myoblast differentiation; assay type: cell-based; details: about 10 nM to about 1 μM; present-tense example
Method: In order to determine and compare the efficacy of IRX4204 and IRX4204+thyroxine in myoblast differentiation, murine skeletal muscle myoblasts and primary myoblasts are cultured. Myogenic differentiation is initiated when cells are approximately 60-80% confluent, with the cells being differentiated into cell types, such as myotubes.

[8] = system: spontaneously hypertensive rats (SHRs); experiment: Cardiac hypertrophy in spontaneously hypertensive rats; assay type: in vivo, rat; details: present-tense example; for inhibition of the increase in cardiac mass and wall thickness: SHRs at 12 weeks of age, 10 mg to 100 mg/kg
Method: Four weeks old SHRs and control rats are randomized and put into groups of 5-10 rats/group. […] Transthoratic echocardiographs are performed to determine cardiac weights and measurements.
The animals are sacrificed at 16 weeks of age to determine cardiac hypertrophy. Hypertrophy is determined by the animal's left ventricle weight to body weight ratio. The myocyte cross-sectional area is also determined. Approximately 10 mg to about 30 mg of the animal's left ventricle is homogenized and subject to sodium dodecyl sulfate polyacrylamide gel electrophoresis (SDS-PAGE) and immunoblot analysis.

[9] = Terminal T4 levels, mortality and body weight in the demyelination study, Example 7; details: 6 weeks treatment during CR
Description: as §1
A total of 50 animals were included in the study, where 43 animals received CR demyelination for 6 weeks. During demyelination, a subset (n=7) of animals were kept on normal diet to serve as naïve age-matched controls.

Compound | production of EGFP+ oligodendrocytes [1] | potency in activating RXR receptors rather than RAR receptors [2] | total cell number and pyknotic cells compared to controls ([3]; OPC culture) | OPC differentiation into oligodendrocytes (EGFP positive cells) compared to negative control (DMSO) ([3]; OPCs from E14.5 PLP-EGFP mouse brains) | Iba1 staining (microglia/macrophages) in CC compared to vehicle [4] | number of SMI32 stained axonal ovoids in CC compared to Vehicle [4] | number of myogenically differentiated cells (skeletal myocytes) [5] | potency at increasing myogenic differentiation (number of myocytes) [6] | myoblast differentiation (numbers of microfibers, differentiated cells) [7] | inhibition of the increase in cardiac mass and wall thickness [8] | RXRα expression in cardiac muscle tissue (immunoblot) ([8]; SHRs at 16 weeks of age) | inhibition of cardiomyocyte cross-sectional area increases ([8]; SHRs at 16 weeks of age) | terminal body weights vs vehicle group [9] | ratio of left ventricle weight to body weight ([8]; SHRs at 16 weeks of age)
N[C@@H](Cc1cc(I)c(Oc2ccc(O)c(I)c2)c(I)c1)C(=O)O [Compound T3, triiodothyronine, reference compound] | clear dose-responses in oligodendrocyte production |  |  |  |  |  |  |  |  |  |  |  |  | 
CC(/C=C/[C@@H]1C[C@]1(C)c1ccc2c(c1)C(C)(C)CCC2(C)C)=C\C(=O)O [IRX4204, 3,7-dimethyl-6(S),7(S)-methano,7-[1,1,4,4-tetramethyl-1,2,3,4-tetrahydronaphth-7-yl]2(E),4(E) heptadienoic acid] | clear dose-responses in oligodendrocyte production | > 1,000 fold | did not show any differences | significant increase in OPC differentiation into oligodendrocytes; also recorded: dose dependent increase in the number of the EGFP positive cells | no difference | trend towards decreased number of axonal ovoids but was not statistically different from the Vehicle | higher number of myogenically differentiated cells as compared to cells treated with retinoic acid, bexarotene, or vehicle alone | more potent at increasing differentiation than treatment with retinoic acid, bexarotene, or vehicle alone | increased numbers of microfibers as compared to cells treated with thyroxine or vehicle alone | greater inhibition of the increase in cardiac mass and wall thickness as compared to bexarotene-treated animals | up-regulated more | greater inhibition of cardiomyocyte cross-sectional area increases than treatment with bexarotene | no significant difference | 
C=C(c1ccc(C(=O)O)cc1)c1cc2c(cc1C)C(C)(C)CCC2(C)C [bexarotene, 4-[1-(3,5,5,8,8-pentamethyl-6,7-dihydronaphthalen-2-yl)ethenyl]benzoic acid, reference compound] |  |  |  |  |  |  |  |  |  | inhibition of the increase in cardiac mass and wall thickness as compared to vehicle-only treated SHRs |  |  |  | significantly lower ratio of left ventricle weight to body weight as compared to vehicle-only treated SHRs
